Patent US20250177422A1 (ZYLORION HEALTH INC., priority 2023, published 2025)

Columns and labels:
mice = assay: Cognitive performance, the Y-maze; format: in vivo; details: oral, 15 days, FIG. 4
Procedure: Cognitive performance, the Y-maze. Mice will be acclimated to a Y-maze having two familiar arms and one unfamiliar arm 1 day prior to testing (i.e., day-1). One the days of testing mice will be placed in the Y-maze and allowed to freely explore for 5 minutes. Behaviours scored will include total locomotion, time spent in each arm, number of arm entries, and correct alternations between the novel arm and familiar arms. A pro-cognitive effect will be reflected by increased time spent in the novel arm and increased percent correct alternations.

BDNF = assay: Brain levels of BDNF in mice after acute treatment; format: in vivo; details: 1 hour after oral administration, Co-crystal Form A 3 mg/kg, Aripiprazole 0.3 mg/kg, FIG. 5
active neurons = assay: Neuronal activation in mice (number of active neurons); details: 21 days oral, co-crystal form A 3 mg/kg, aripiprazole 0.3 mg/kg, FIG. 7
Procedure: For immunohistochemistry sampling, EdU (5-Ethynyl-2′-deoxyuridine, Lumiprobe, 100 μg/g) was injected together with the drugs for the first 7 days. On the day following the 14-day treatment period, the brains of the mice were dissected for subsequent analyses, including immunohistochemistry and electrophysiology (E-phys).

[1] = system: neuronal progenitor/stem cell levels in mice brain; assay: Neuronal progenitor/stem cell levels in mice brain (immunohistochemistry); format: in vivo; details: 14 days oral; co-crystal form A 3 mg/kg, aripiprazole 0.3 mg/kg; FIG. 6

O=C1CCc2ccc(OCCCCN3CCN(c4cccc(Cl)c4Cl)CC3)cc2N1 [aripiprazole]
short-term and working memory (Y-maze), compared to control (mice): smaller but significant increase | brain levels of BDNF (BDNF): significant increase in brain levels of BDNF | change in neuronal activation (number of active neurons) (active neurons): significant increase | neuronal progenitor/stem cell levels in mice brain [1]: no significant effect
